Assay results taken from patent US20180086749A1, “INHIBITORS OF VIRUSES” (priority 2015, published 2018).
Values joined by “and” are separate entries in the source; they are usually repeats but may differ in a detail not shown here. Equal values may be shown once. Read-outs that look alike come from different tables or passages of the source.

Key:
[1] = in vitro; settings: African green monkey, CC50 μM (Vero76)
[2] = tested on: VEEV TrD; experiment: microbe, parasite or virus in culture; format: cell-based; settings: Venezuelan equine encephalitis virus
[3] = tested on: VEEV TC-83; format: cell-based, Venezuelan equine encephalitis virus
[4] = tested on: YFV 17D; format: cell-based, Yellow Fever virus
[5] = tested on: Ebola virus-GFP; experiment: microbe, parasite or virus in culture; format: cell-based, Zaire ebolavirus
[6] = tested on: innate immune response genes in HEK 293T cells; format: cell-based, human
[7] = tested on: SARS-CoV; format: cell-based, Severe acute respiratory syndrome coronavirus
[8] = tested on: CHIKV S27; format: cell-based, Chikungunya virus
[9] = tested on: alphaviruses; format: cell-based; settings: 5 μM
[10] = tested on: pVSV-luc; experiment: microbe, parasite or virus in culture; format: cell-based, Vesicular stomatitis virus; settings: for EC50: Vesicular stomatitis virus
[11] = tested on: ZIKV/MR766; experiment: Dose-response EC50, ZIKV/MR766; format: cell-based; settings: Zika virus, Vero 76, Vero76, MOI 0.05
[12] = tested on: VEEV TrD (Trinidad donkey); format: cell-based, Venezuelan equine encephalitis virus
[13] = tested on: Vero 76 cells
[14] = tested on: LCMV-ARM; format: cell-based, Lymphocytic Choriomeningitis Virus
[15] = tested on: HSV-2; format: cell-based, Herpes simplex virus type-2
[16] = tested on: HEK 293T cells; experiment: ApoTox-Glo Triplex viability, cytotoxicity, apoptosis assay; settings: four days exposure
[17] = tested on: JEV; experiment: Dose-response EC50, JEV; format: cell-based; settings: Japanese encephalitis virus
[18] = tested on: WNV/NY99; experiment: Dose-response EC50, WNV; format: cell-based; settings: West Nile virus
[19] = tested on: VEEV (TC83 strain); experiment: microbe, parasite or virus in culture; format: cell-based, Venezuelan equine encephalitis virus
[20] = tested on: VEEV V3526-luc; experiment: microbe, parasite or virus in culture; format: cell-based, Venezuelan equine encephalitis virus; settings: for EC50: Venezuelan equine encephalitis virus
[21] = tested on: cellular metabolites of HEK 293T cells; experiment: Metabolomics analysis of cellular metabolites; format: cell-based, human
[22] = tested on: ZIKV/PRVABC59; experiment: Dose-response EC50, ZIKV/PRVABC59; format: cell-based; settings: Zika virus, Vero 76, Vero76, MOI 0.05
[23] = tested on: HEK-Blue IFN-α/β reporter cells; experiment: HEK-Blue IFN-α/β cell reporter assay (SEAP); format: cell-based, human
[24] = tested on: WNV/NY99; format: cell-based, West Nile virus
[25] = tested on: RSV Long; format: cell-based, Respiratory syncytial virus
[26] = tested on: JEV; format: cell-based, Japanese Encephalitis virus
[27] = ML416-treated / DMSO-treated, 18 hours
[28] = ML416 / DMSO, metabolite not confirmed by standard

Q: With `CN(C(=O)Cc1sccc1F)c1nc2c(s1)CCCC2` [ML416, 2-(3-fluorothiophen-2-yl)-N-methyl-N-(4,5,6,7-tetrahydro-1,3-benzothiazol-2-yl)acetamide] as the molecule, how does the CC50 [1] read?
A: > 50 µM

Q: And the EC50 [2]?
A: 460 nM

Q: And the “Log titer inhibition at 5 μM” value [3]?
A: −2.536 ± 0.018 Log

Q: And the “Log titer inhibition at 5 μM” value [4]?
A: −2.32 Log

Q: What about the Log titer reduction ([4]; 5 μM) of the same molecule?
A: ~2 Log

Q: What about the EC50 [5] of the same molecule?
A: 260 nM

Q: And the EC50 ([5]; Zaire ebolavirus, HeLa)?
A: 300 nM

Q: What about the IFIH1 expression [6] of the same molecule?
A: repressed

Q: And the IFIT1 gene upregulation [6]?
A: more than 10 fold

Q: And the IFNB1 expression [6]?
A: repressed

Q: And the IRF7 gene upregulation [6]?
A: more than 10 fold

Q: What about the MYD88 expression [6] of the same molecule?
A: did not show any changes

Q: What about the OAS1 expression [6] of the same molecule?
A: did not show any changes

Q: And the OAS2 gene upregulation [6]?
A: more than 10 fold

Q: What about the RIG-I gene upregulation [6] of the same molecule?
A: more than 10 fold

Q: What about the “antiviral activity (blank spaces of Table 2)” value [7] of the same molecule?
A: initial results have shown activity

Q: What about the “reduction of CHIKV viral titer in vitro” value [8] of the same molecule?
A: 4 log

Q: And the “Log titer inhibition at 5 μM” value ([8]; 5 μM)?
A: −4.024 Log

Q: And the “Log reduction in progeny virus titers” value [9]?
A: greater than 4 Log

Q: What about the antiviral effect [10] of the same molecule?
A: moderate effect

Q: And the EC50 [10]?
A: 190 nM

Q: And the EC50 ([10]; BHK, read-out: EC50 pVSV-Gp)?
A: 8260 nM

Q: And the EC50 ([10]; HEK-293T, read-out: EC50 pVSV-Gp)?
A: 170 nM

Q: What about the EC50 ([10]; N2a, read-out: EC50 pVSV-Gp) of the same molecule?
A: > 50000 nM

Q: And the EC50 ([10]; NIH3T3, read-out: EC50 pVSV-Gp)?
A: > 50000 nM

Q: What about the EC50 ([10]; in Mus musculus) of the same molecule?
A: > 50000 nM

Q: What about the EC50 ([10]; read-out: EC50 pVSV-Gp) of the same molecule?
A: 3820 nM

Q: And the EC50 ([10]; read-out: EC50 values range)?
A: 150 to 680 nM

Q: What about the EC50 [11] of the same molecule?
A: 1100 nM

Q: What about the “Log titer inhibition at 5 μM” value [12] of the same molecule?
A: −4.768 Log

Q: What about the CC50 [13] of the same molecule?
A: > 50000 nM

Q: And the “Selective Index 50 (SI50)” value [13]?
A: 106.9

Q: And the “concentration up to which no apparent cytotoxicity” value ([13]; African green monkey)?
A: up to 12.5 μM

Q: And the cytotoxicity ([13]; African green monkey)?
A: > 40 µM

Q: And the “cytotoxicity in Vero 76 cells” value ([13]; African green monkey)?
A: > 50 µM

Q: And the “Log titer inhibition at 5 μM” value [14]?
A: −3.466 Log

Q: What about the “Log reduction in progeny virus titers” value ([14]; 5 μM) of the same molecule?
A: greater than 3 Log

Q: And the “Log titer inhibition at 5 μM” value [15]?
A: 0.01 ± 0.43 Log

Q: What about the “concentration up to which no significant cytotoxicity and apoptosis” value [16] of the same molecule?
A: up to 25 μM

Q: What about the EC50 [17] of the same molecule?
A: 1900 nM

Q: What about the EC50 ([17]; Vero 76, JEV, Vero76, MOI 0.05, Table 3, read-out: EC50) of the same molecule?
A: 1900 nM

Q: And the EC50 ([18]; Table 2)?
A: 2400 nM

Q: What about the EC50 ([18]; Vero 76, Vero76, MOI 0.01, Table 3) of the same molecule?
A: 2400 nM

Q: What about the EC50 ([19]; Venezuelan equine encephalitis virus) of the same molecule?
A: 350 nM

Q: And the EC50 ([19]; read-out: VEEV (TC83 strain) CPE Assay Potency mean EC50)?
A: 1000 nM and 900 nM

Q: What about the antiviral effect [20] of the same molecule?
A: moderate effect

Q: What about the “effect of DHO addition on antiviral activity” value [20] of the same molecule?
A: did not affect the antiviral activity

Q: What about the EC50 [20] of the same molecule?
A: 170 nM

Q: And the EC50 ([20]; BHK, read-out: EC50 V3526-luc)?
A: 1120 nM

Q: And the EC50 ([20]; HEK-293T, read-out: EC50 V3526-luc)?
A: 150 nM

Q: And the EC50 ([20]; N2a, read-out: EC50 V3526-luc)?
A: > 50000 nM

Q: And the EC50 ([20]; NIH3T3, read-out: EC50 V3526-luc)?
A: > 50000 nM

Q: And the EC50 ([20]; Vero 76, read-out: EC50 V3526-luc)?
A: 170 nM

Q: What about the EC50 ([20]; in Mus musculus) of the same molecule?
A: > 50000 nM

Q: And the EC50 ([20]; read-out: EC50 V3526-luc)?
A: 490 nM

Q: What about the EC50 ([20]; read-out: EC50 values range) of the same molecule?
A: 150 to 680 nM

Q: What about the “Fold Change: 3-((carboxymethyl)(methyl)amino)-3-oxopropanoic acid” value [21, 27] of the same molecule?
A: 0.46 fold

Q: What about the “Fold Change: Citirc acid” value [21, 27] of the same molecule?
A: 0.62 fold

Q: And the “Fold Change: D-(−)-Lactic acid” value [21, 27]?
A: 0.76 fold

Q: And the “Fold Change: DL-Ornithine” value [21, 27]?
A: 0.53 fold

Q: What about the “Fold Change: DL-Phenylalanine” value [21, 27] of the same molecule?
A: 0.71 fold

Q: What about the “Fold Change: Fumaric Acid” value [21, 27] of the same molecule?
A: 11 fold and 11.00 fold

Q: And the “Fold Change: Glycine” value [21, 27]?
A: 2.80 fold

Q: What about the “Fold Change: L-Asparagine” value [21, 27] of the same molecule?
A: 0.41 fold

Q: What about the “Fold Change: L-Aspartic acid” value [21, 27] of the same molecule?
A: 2.07 fold

Q: What about the “Fold Change: L-Glutamic acid” value [21, 27] of the same molecule?
A: 0.09 fold

Q: And the “Fold Change: L-Isoleucine” value [21, 27]?
A: 0.45 fold

Q: And the “Fold Change: L-Lysine” value [21, 27]?
A: 2.76 fold

Q: What about the “Fold Change: L-Proline” value [21, 27] of the same molecule?
A: 0.28 fold

Q: What about the “Fold Change: L-Threonine” value [21, 27] of the same molecule?
A: 0.54 fold

Q: What about the “Fold Change: L-Tyrosine” value [21, 27] of the same molecule?
A: 0.86 fold

Q: And the “Fold Change: Lauric acid; Dodecanoic acid” value [21, 27]?
A: 0.73 fold

Q: What about the “Fold Change: Oxalic acid” value [21, 27] of the same molecule?
A: 0.66 fold

Q: What about the “Fold Change: Phenylalanine” value [21, 27] of the same molecule?
A: 0.40 fold

Q: What about the “Fold Change: Pyruvic acid” value [21, 27] of the same molecule?
A: 1.60 fold

Q: What about the “Fold Change: Tryptophan” value [21, 27] of the same molecule?
A: 1.23 fold

Q: And the “presence of free uridine” value ([21]; ML416-treated groups)?
A: not detected

Q: And the “Fold Change: 1-phenylpropan-2-amine; Amphetamine; Fenopromin*” value [21, 28]?
A: 0.80 fold

Q: And the “Fold Change: 2-(Dimethylamino)ethyl neopentyl carbonate*” value [21, 28]?
A: 1.49 fold

Q: What about the “Fold Change: 3,3-diethoxy-2-hydroxypropyl dihydrogen phosphate*” value [21, 28] of the same molecule?
A: 0.58 fold

Q: And the “Fold Change: 3-Glycerophosphate*” value [21, 28]?
A: 1.71 fold

Q: What about the “Fold Change: 3-hydroxy-2-methylpropanoic acid; 3-Hydroxyisobutyric acid*” value [21, 28] of the same molecule?
A: 0.70 fold

Q: What about the “Fold Change: Adenine*” value [21, 28] of the same molecule?
A: 1.37 fold

Q: What about the “Fold Change: Dihydromuconic acid; trans-3-Hexenedioic acid*” value [21, 28] of the same molecule?
A: 0.23 fold

Q: What about the “Fold Change: Ethylcholine mustard*” value [21, 28] of the same molecule?
A: 0.49 fold

Q: And the “Fold Change: L-Norvaline*” value [21, 28]?
A: 0.52 fold

Q: And the “Fold Change: Niacinamine*” value [21, 28]?
A: 0.74 fold

Q: What about the “Fold Change: O-phosphorylethanolamine; 2-aminoethyl dihydrogen phosphate*” value [21, 28] of the same molecule?
A: 1.35 fold

Q: What about the “Fold Change: Ribitol*” value [21, 28] of the same molecule?
A: 0.66 fold

Q: And the “Fold Change: Scyllo-Inositol*” value [21, 28]?
A: 1.23 fold

Q: And the “Fold Change: meso-Erythritol; Erythritol*” value [21, 28]?
A: 0.69 fold

Q: What about the “presence of dihydroorotic acid (DHO)” value ([21]; ML416 vs mock-treated) of the same molecule?
A: found only in ML416-treated groups

Q: What about the “presence of orotic acid” value ([21]; ML416 vs mock-treated) of the same molecule?
A: found only in ML416-treated groups

Q: What about the EC50 [22] of the same molecule?
A: 2200 nM

Q: What about the “IFN α/β in cell culture supernatant” value ([23]; HEK 293T supernatant on HEK-Blue IFN-α/β cells) of the same molecule?
A: no measurable quantity of IFNs was detected

Q: And the SEAP activity ([23]; HEK-Blue IFN-α/β cells treated directly, FIG. 6)?
A: did not induce SEAP activity

Q: What about the “Log titer inhibition at 5 μM” value [24] of the same molecule?
A: −2.05 ± −0.09 Log

Q: And the Log titer reduction ([24]; 5 μM)?
A: ~2 Log

Q: And the “Log titer inhibition at 5 μM” value [25]?
A: −2.27 ± 0.1 Log

Q: What about the Log titer reduction ([25]; 5 μM) of the same molecule?
A: ~2 Log

Q: And the “Log titer inhibition at 5 μM” value [26]?
A: −1.3 ± −0.43 Log

Q: And the Log reduction ([26]; 5 μM)?
A: ~1.3 Log
